# Assays:
# Beta-secretase 1 [1] = target: T1, Beta-secretase 1 (Homo sapiens, UniProt P56817); assay: Inhibition of human recombinant BACE1 at 2 uM
# Beta-secretase 1 [2] = target: T1, Beta-secretase 1; assay: Inhibition of human recombinant BACE1 at 0.2 uM
# Beta-secretase 1 [3] = target: T1, Beta-secretase 1; assay: Inhibition of BACE1 expressed in HEK293 cells at 100 uM; format: cell-based
# Beta-secretase 1 [4] = target: T1, Beta-secretase 1; assay: Inhibition of human recombinant BACE1
# T1 sequence (P56817 whole entry): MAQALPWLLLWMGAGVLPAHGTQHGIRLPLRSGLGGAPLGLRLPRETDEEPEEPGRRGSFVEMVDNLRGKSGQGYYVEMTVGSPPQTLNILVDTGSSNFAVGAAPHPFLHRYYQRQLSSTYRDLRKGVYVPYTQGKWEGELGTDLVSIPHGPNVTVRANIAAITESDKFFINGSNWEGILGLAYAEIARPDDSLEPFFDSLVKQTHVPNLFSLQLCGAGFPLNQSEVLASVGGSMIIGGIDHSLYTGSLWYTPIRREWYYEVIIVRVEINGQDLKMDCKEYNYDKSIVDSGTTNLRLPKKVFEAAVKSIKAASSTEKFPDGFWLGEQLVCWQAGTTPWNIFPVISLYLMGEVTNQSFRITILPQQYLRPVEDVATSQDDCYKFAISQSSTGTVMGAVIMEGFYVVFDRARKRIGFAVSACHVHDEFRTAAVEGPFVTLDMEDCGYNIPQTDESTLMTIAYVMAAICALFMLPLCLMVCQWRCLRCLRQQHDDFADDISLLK
smiles,measurement,setting,value
CC(C)C[C@H](NC(=O)[C@@H](NC(=O)[C@@H](N)CNC(=O)c1nn[nH]n1)C(C)C)C(=O)N[C@@H](Cc1ccccc1)[C@@H](O)C(=O)Nc1cccc(-c2nn[nH]n2)c1,inhibition,Beta-secretase 1 [1],100%
same,inhibition,Beta-secretase 1 [2],98%
same,inhibition,Beta-secretase 1 [3],66%
CC(C)C[C@H](NC(=O)[C@@H](NC(=O)[C@@H](N)CNC(=O)c1cc(O)nc(O)n1)C(C)C)C(=O)N[C@@H](Cc1ccccc1)[C@@H](O)C(=O)Nc1cccc(C(=O)O)c1,inhibition,Beta-secretase 1 [1],90%
same,inhibition,Beta-secretase 1 [2],54%
same,inhibition,Beta-secretase 1 [3],46%
CC(C)C[C@H](NC(=O)[C@@H](NC(=O)[C@@H](N)CNC(=O)c1ccccc1O)C(C)C)C(=O)N[C@@H](Cc1ccccc1)[C@@H](O)C(=O)Nc1cccc(C(=O)O)c1,inhibition,Beta-secretase 1 [1],75%
same,inhibition,Beta-secretase 1 [3],29%
CC(C)C[C@H](NC(=O)[C@@H](NC(=O)[C@@H](N)CNC(=O)c1cc[nH]c1)C(C)C)C(=O)N[C@@H](Cc1ccccc1)[C@@H](O)C(=O)Nc1cccc(C(=O)O)c1,inhibition,Beta-secretase 1 [1],69%
CC(C)C[C@H](NC(=O)[C@@H](NC(=O)[C@@H](N)CNC(=O)c1ccc(O)cc1O)C(C)C)C(=O)N[C@@H](Cc1ccccc1)[C@@H](O)C(=O)Nc1cccc(C(=O)O)c1,inhibition,Beta-secretase 1 [1],86%
same,inhibition,Beta-secretase 1 [2],59%
same,inhibition,Beta-secretase 1 [3],20%
CC(C)[C@H](NC(=O)[C@@H](N)CNC(=O)c1[nH]c(=O)[nH]c(=O)c1F)C(=O)N[C@@H](CC1CCCCC1)C(=O)N[C@@H](Cc1ccccc1)[C@@H](O)C(=O)Nc1cccc(-c2nnn[nH]2)c1,IC50,Beta-secretase 1 [4],5.6 nM
CC(C)C[C@H](NC(=O)[C@@H](NC(=O)[C@@H](N)CNC(=O)c1nc(O)nc(O)c1F)C(C)C)C(=O)N[C@@H](Cc1ccccc1)[C@@H](O)C(=O)Nc1cccc(C(=O)O)c1,inhibition,Beta-secretase 1 [1],99%
same,inhibition,Beta-secretase 1 [2],82%
same,inhibition,Beta-secretase 1 [3],76%
CC(C)C[C@H](NC(=O)[C@@H](NC(=O)[C@@H](N)CNC(=O)c1cccc(O)c1O)C(C)C)C(=O)N[C@@H](Cc1ccccc1)[C@@H](O)C(=O)Nc1cccc(C(=O)O)c1,inhibition,Beta-secretase 1 [1],89%
same,inhibition,Beta-secretase 1 [2],75%
same,inhibition,Beta-secretase 1 [3],0%
CC(C)[C@H](NC(=O)[C@@H](N)CNC(=O)c1cc(O)ccc1O)C(=O)N[C@@H](CC1CCCCC1)C(=O)N[C@@H](Cc1ccccc1)[C@@H](O)C(=O)Nc1cccc(-c2nn[nH]n2)c1,inhibition,Beta-secretase 1 [1],99%
same,inhibition,Beta-secretase 1 [2],92%
same,inhibition,Beta-secretase 1 [3],69%
CC(C)C[C@H](NC(=O)[C@@H](NC(=O)[C@@H](N)CNC(=O)c1cc(O)ccc1O)C(C)C)C(=O)N[C@@H](Cc1ccccc1)[C@@H](O)C(=O)Nc1cccc(C(=O)O)c1,inhibition,Beta-secretase 1 [1],98%
same,inhibition,Beta-secretase 1 [2],84%
same,inhibition,Beta-secretase 1 [3],58%
CC(C)C[C@H](NC(=O)[C@@H](NC(=O)[C@@H](N)CNC(=O)c1cc(O)ccc1O)C(C)C)C(=O)N[C@@H](Cc1ccccc1)[C@@H](O)C(=O)Nc1cccc(-c2nn[nH]n2)c1,inhibition,Beta-secretase 1 [1],99%
same,inhibition,Beta-secretase 1 [2],93%
same,inhibition,Beta-secretase 1 [3],65%
CC(C)C[C@H](NC(=O)[C@@H](NC(=O)[C@@H](N)CNC(=O)c1nc(O)nc(O)c1I)C(C)C)C(=O)N[C@@H](Cc1ccccc1)[C@@H](O)C(=O)Nc1cccc(C(=O)O)c1,inhibition,Beta-secretase 1 [1],99%
same,inhibition,Beta-secretase 1 [2],72%
same,inhibition,Beta-secretase 1 [3],73%
CC(C)C[C@H](NC(=O)[C@@H](NC(=O)[C@@H](N)CNC(=O)c1[nH]c(=O)[nH]c(=O)c1F)C(C)C)C(=O)N[C@@H](Cc1ccccc1)[C@@H](O)C(=O)Nc1cccc(-c2nn[nH]n2)c1,inhibition,Beta-secretase 1 [1],100%
same,inhibition,Beta-secretase 1 [2],98%
same,inhibition,Beta-secretase 1 [3],63%
CC(C)[C@H](NC(=O)[C@@H](N)CNC(=O)c1nn[nH]n1)C(=O)N[C@@H](CC1CCCCC1)C(=O)N[C@@H](Cc1ccccc1)[C@@H](O)C(=O)Nc1cccc(-c2nn[nH]n2)c1,inhibition,Beta-secretase 1 [1],100%
same,inhibition,Beta-secretase 1 [2],98%
same,inhibition,Beta-secretase 1 [3],59%
CC(C)C[C@H](NC(=O)[C@@H](NC(=O)[C@@H](N)CNC(=O)[C@H]1CC(=O)NC(=O)N1)C(C)C)C(=O)N[C@@H](Cc1ccccc1)[C@@H](O)C(=O)Nc1cccc(C(=O)O)c1,inhibition,Beta-secretase 1 [1],13%
CC(C)C[C@H](NC(=O)[C@@H](NC(=O)[C@@H](N)CNC(=O)c1[nH]c(=O)[nH]c(=O)c1F)C(C)C)C(=O)N[C@@H](Cc1ccccc1)[C@@H](O)C(=O)Nc1cccc(-c2nnn[nH]2)c1,IC50,Beta-secretase 1 [4],6.5 nM
CC(C)C[C@H](NC(=O)[C@@H](NC(=O)[C@@H](N)CNC(=O)[C@@H]1CC(=O)NC(=O)N1)C(C)C)C(=O)N[C@@H](Cc1ccccc1)[C@@H](O)C(=O)Nc1cccc(C(=O)O)c1,inhibition,Beta-secretase 1 [1],40%
CC(C)C[C@H](NC(=O)[C@@H](NC(=O)[C@@H](N)CNC(=O)c1cc(O)cc(O)c1)C(C)C)C(=O)N[C@@H](Cc1ccccc1)[C@@H](O)C(=O)Nc1cccc(C(=O)O)c1,inhibition,Beta-secretase 1 [1],94%
same,inhibition,Beta-secretase 1 [2],60%
same,inhibition,Beta-secretase 1 [3],69%
CC(C)C[C@H](NC(=O)[C@@H](NC(=O)[C@@H](N)CNC(=O)c1cccc(O)c1)C(C)C)C(=O)N[C@@H](Cc1ccccc1)[C@@H](O)C(=O)Nc1cccc(C(=O)O)c1,inhibition,Beta-secretase 1 [1],91%
same,inhibition,Beta-secretase 1 [2],49%
same,inhibition,Beta-secretase 1 [3],57%
CC(C)[C@H](NC(=O)[C@@H](N)CNC(=O)c1[nH]c(=O)[nH]c(=O)c1F)C(=O)N[C@@H](CC1CCCCC1)C(=O)N[C@@H](Cc1ccccc1)[C@@H](O)C(=O)Nc1cccc(-c2nn[nH]n2)c1,inhibition,Beta-secretase 1 [1],100%
same,inhibition,Beta-secretase 1 [2],97%
same,inhibition,Beta-secretase 1 [3],84%
CC(C)[C@H](NC(=O)[C@@H](N)CNC(=O)c1nnn[nH]1)C(=O)N[C@@H](CC1CCCCC1)C(=O)N[C@@H](Cc1ccccc1)[C@@H](O)C(=O)Nc1cccc(-c2nnn[nH]2)c1,IC50,Beta-secretase 1 [4],3.3 nM
CC(C)C[C@H](NC(=O)[C@@H](NC(=O)[C@@H](N)CNC(=O)c1ccoc1)C(C)C)C(=O)N[C@@H](Cc1ccccc1)[C@@H](O)C(=O)Nc1cccc(C(=O)O)c1,inhibition,Beta-secretase 1 [1],82%
same,inhibition,Beta-secretase 1 [2],38%
same,inhibition,Beta-secretase 1 [3],4%
